Results reported in US20220380331A1, “TREATMENT OF CONDITIONS OF THE NERVOUS SYSTEM” (priority 2019, published 2022).
Entries after “also recorded” stand apart in the source; their conditions may differ.

What was measured:
[1] = test system: locomotor function of intact rats; settings: female, Lister Hooded, rat, in vivo, 10 days
Text: Firstly, the inventors questioned whether PNN removal throughout the CNS would affect normal sensation and motor functions. To investigate this, adult female Lister Hooded rats (n=11) were given ten days of oral PNNi treatment and subjected to routine behavioural testing.

[2] = test system: sensorimotor cortical slices; test: Field potentials and paired-pulse protocols in in vitro sensorimotor cortical slices; parameters: species or system rat
Protocol: FIG. […]): Forelimb (FL) shifts into hindlimb (HL) area of sensorimotor cortex (M1) after perineuronal net inhibitor (PNNi) and spinal cord injury (SCI) combination. PNNi and/or injury independently enhances cortical plasticity in spinal cord injured rats. Intracortical microstimulation (ICMS) was performed at stereotaxic coordinates within a right hemisphere craniotomy 5 mm rostral/caudal to bregma (B) (A) 11 weeks post-injury. Representative heat maps per group illustrate the percentage of animals for each stereotaxic coordinate where HL (B-C) or FL (D-E) movements were able to be elicited. The Lister Hooded rat baseline HL and FL cortical maps (dotted outlines in B-E) were compared to groups with mid-thoracic SCI (B, D) and/or long-term PNNi administration (C, E) to assess structural plasticity. HL movements were unable to be elicited after SCI (B-C). Measurements for FL analysis (K-N) are illustrated in J). After PNNi and/or SCI, FL movements were elicited in areas that previously elicited HL movements (see right of white dotted outline D-E). […] G: Plot of the average field potential amplitudes vs. stimulus intensity per group. Synaptic responses were elicited in cortical layers II/III by electrical stimuli via bipolar electrodes placed in cortical layers V/VI. Recordings were performed on cortical slice at the following coordinates: ML: 2-3 mm and AP 1.40-1.8 mm caudal to bregma. […]

[3] = test system: PNNs in the spinal cord; test: Short-term (10 days) PNNi administration, histology of PNN/ECM components in the CNS; type: in vivo, rat
Protocol: Animals were given an overdose of sodium pentobarbital (Pentoject; Henry Schein; 200 mg/kg; intraperitoneal injection) to deeply […] without halting cardiac function. A transcardial perfusion (Gage et al., 2012) was then performed using sodium phosphate buffer (PB; 0.12 M sodium phosphate monobasic; 0.1 M NaOH; pH 7.4) followed by 4% paraformaldehyde (PFA; in PB; pH 7.4) for tissue fixation. The brain and spinal cord were dissected out, post-fixed in PFA (4%; 4° C.) overnight and cryoprotected in 30% sucrose solution (30% v/w sucrose in PB; 4° C.) until tissue saturation. The left brain hemisphere and appropriate spinal cord segments were excised and frozen in optimum temperature medium (OCT; Leica FSC 22 Frozen Section Media; Leica Biosystems) before storage at -80° C. until sectioning. Sectioning of tissue was performed using a cryostat (Leica CM1850; Leica Biosystems) into 40 μm transverse sections for free-floating sections and collected into 48-well plates containing physiological buffer solution (PBS; 0.13 M sodium chloride, […], 0.003 M sodium phosphate monobasic; pH 7.4) to remove the OCT before being transferred to 30% sucrose solution for storage at 4° C. At room temperature (RT), sections were washed three times for 5 min each in Tris-buffered saline (TBS; 0.1 M tris base, 0.15 M NaCl; pH 7.4) to remove sucrose residue. Tissue was then blocked in 0.3% TBST (1×TBS solution and 0.3% v/v Triton X-100) and 3% normal donkey serum (NDS; v/v) for two hours. The sections were then transferred to co-incubate at 4° C. in blocking buffer (3% NDS in 0.3% TBST; pH 7.4) containing primary antibodies. Following primary antibody or lectin incubation, sections were then washed thrice using TBS (10 mins; RT). To visualise each primary antibody staining, the tissue was then co-incubated in darkness with the fluorescent-conjugated secondary antibodies (1:500; 2 hrs; RT) against the species of the primary antibodies. Tissues were then washed three times in TBS (10 mins; RT) whilst protected from light. A final wash in Tris non-saline (TNS; 0.5 M Tris, pH 7.6) was given to reduce precipitation before air-drying. Tissues were mounted on Superfrost Plus slides, air-dried and coverslipped with the mounting medium FluorSaveTM Reagent (EMD Millipore). Lectins: biotinylated Wisteria floribunda agglutinin (bio-WFA), biotinylated hyaluronan binding protein (bHABP). […] PNNi treatment was consequently investigated in vivo, with short-term administration (10 days) via either oral feeding or intraperitoneal (i.p.) injection twice daily. […] Quantification in the dorsal horn of the spinal cord illustrated that ten days of oral PNNi administration induced a partial removal of WFA-positive moieties to 71.0±7.20% of baseline ECM levels (t(3)=5.15, p=0.0142; FIG. 9P). […] As oral PNNi treatment is both non-invasive and generated sufficient effects on the neural ECM in vivo, the following PNNi dosing experiments with Lister Hooded rats used this method of administration.

## Cc1cc(=O)oc2cc(O)ccc12 [PNNi, 4-methylumbelliferone]
[1]
  FL correct steps: 94.4±0.56%
  FL missed steps: 1.13±0.24%
  FL slipped steps: 4.35±0.54%
  HL correct stepping on the horizontal ladder: approximately 92.7±0.82%
  HL misses on the horizontal ladder: 1.92±0.41%
  HL slips on the horizontal ladder: 5.43±0.70%
[2]; combination of SCI and PNNi treatment
  intracortical synaptic transmission: increased intracortical synaptic transmission; also recorded: elevated synaptic transmission
[2]; sham animals, short and long interstimulus intervals
  paired-pulse inhibition (PPR): not altered
[3]; dorsal horn of the spinal cord, ten days oral
  WFA-positive moieties, of baseline ECM levels: 71.0±7.20%
[3]; dorsal horn, short-term oral
  HAPLN-1 staining, of baseline levels: 68.3±8.09%
  staining with HA binding protein (HABP), of baseline levels: 64.0±5.84%
[3]; intact rats, 10 days oral
  PNNs (ACAN staining, HABP) after 10 days oral administration in intact rats: PNNs are reduced
[3]; ten days dosing, oral feeding or i.p. injection twice daily
  WFA-positive binding throughout the CNS compared to non-treated animals: sufficient in decreasing WFA-positive binding
[3]; ten-day non-invasive oral administration
  chondroitin sulphate and hyaluronan in the spinal cord: down-regulates both chondroitin sulphate and hyaluronan
